In patent publication US9862717B2 (Merck Patent GmbH, priority 2014, dated 2018):
Where two headings read alike, the source gives them in different places.

Target: T1, CDK8/CycC (Homo sapiens, UniProt P49336)
T1 construct: purchased Invitrogen PV4402
Test: FRET based Lanthascreen binding competition assay for CDK8 inhibitory activity
Settings: CDK8 co-expressed with CycC, class symbols
Summary of the method: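 Competition binding of a dye-labeled ATP-competitive Alexa647 probe to CDK8 co-expressed with CycC, Eu-labeled via biotinylated anti-His antibody/streptavidin.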

T1 sequence (P49336 whole entry): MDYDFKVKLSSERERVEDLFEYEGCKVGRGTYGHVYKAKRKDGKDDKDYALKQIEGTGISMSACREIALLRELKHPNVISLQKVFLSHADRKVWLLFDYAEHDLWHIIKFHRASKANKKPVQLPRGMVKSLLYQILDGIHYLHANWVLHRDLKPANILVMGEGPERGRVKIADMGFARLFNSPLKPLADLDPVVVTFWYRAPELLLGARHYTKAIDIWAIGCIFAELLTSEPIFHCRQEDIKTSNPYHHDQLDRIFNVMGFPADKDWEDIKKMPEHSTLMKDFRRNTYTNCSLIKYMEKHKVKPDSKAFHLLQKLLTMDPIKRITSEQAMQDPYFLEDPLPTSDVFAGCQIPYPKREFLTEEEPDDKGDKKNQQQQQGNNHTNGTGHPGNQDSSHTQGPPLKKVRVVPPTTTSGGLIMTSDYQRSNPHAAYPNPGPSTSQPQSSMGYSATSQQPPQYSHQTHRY
T1 sequence (P24863 whole entry partner): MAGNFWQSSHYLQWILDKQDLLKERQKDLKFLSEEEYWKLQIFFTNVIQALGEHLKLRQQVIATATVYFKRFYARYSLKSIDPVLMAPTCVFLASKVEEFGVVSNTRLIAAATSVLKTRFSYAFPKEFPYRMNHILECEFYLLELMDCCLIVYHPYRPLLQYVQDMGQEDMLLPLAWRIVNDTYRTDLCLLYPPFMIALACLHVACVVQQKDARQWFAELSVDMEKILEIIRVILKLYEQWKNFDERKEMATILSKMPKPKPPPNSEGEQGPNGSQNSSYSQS

| Structure (SMILES) | IC50 (read-out: IC50) [µM] | IC50 (IC50 [μM]) [µM] |
| --- | --- | --- |
| Cc1n[nH]c2ccc(C(=O)N3CC[C@H]3c3ccc(F)cc3)cc12 [compound 204, [(S)-2-(4-Fluoro-phenyl)-azetidin-1-yl]-(3-methyl-1H-indazol-5-yl)-methanone] | < 0.01 |  |
| Cc1n[nH]c2ccc(C(=O)N3CC[C@@H]3c3ccc(Cl)cc3)cc12 [compound 205, [(R)-2-(4-Chloro-phenyl)-azetidin-1-yl]-(3-methyl-1H-indazol-5-yl)-methanone] |  | 0.1 to 1 |
| Nc1n[nH]c2ccc(C(=O)N3CCC[C@H]3c3ccc(C(F)(F)F)cc3)cc12 [compound 208, (3-Amino-1H-indazol-5-yl)-[(S)-2-(4-trifluoromethyl-phenyl)-pyrrolidin-1-yl]-methanone] | 0.01 to 0.1 |  |
| Nc1n[nH]c2ccc(C(=O)N3CCC[C@@H]3c3ccc(C(F)(F)F)cc3)cc12 [compound 209, (3-Amino-1H-indazol-5-yl)-[(R)-2-(4-trifluoromethyl-phenyl)-pyrrolidin-1-yl]-methanone] | 0.1 to 1 |  |
| Cc1n[nH]c2ncc(C(=O)N3CCO[C@@](C)(c4ccc(Cl)cc4)C3)cc12 [compound 214, [(S)-2-(4-Chloro-phenyl)-2-methyl-morpholin-4-yl]-(3-methyl-1H-pyrazolo[3,4-b]pyridin-5-yl)-methanone] | 1 to 10 |  |
| Cc1n[nH]c2ncc(C(=O)N3CCNC(=O)[C@H]3c3ccc(F)cc3)cc12 [compound 215, (R)-3-(4-Fluoro-phenyl)-4-(3-methyl-1H-pyrazolo[3,4-b]pyridine-5-carbonyl)-piperazin-2-one] | 1 to 10 |  |
| O=C(c1ccc2[nH]nc(Cl)c2c1)N1CCC[C@H]1c1ccc(Cl)cc1 [compound 217, (3-Chloro-1H-indazol-5-yl)-[(S)-2-(4-chloro-phenyl)-pyrrolidin-1-yl]-methanone] | 0.01 to 0.1 |  |
| O=C(c1ccc2[nH]nc(Cl)c2c1)N1CCC(c2ccc(Cl)cc2)C1 (centres unmarked) [compound 218, (3-Chloro-1H-indazol-5-yl)-[3-(4-chloro-phenyl)-pyrrolidin-1-yl]-methanone] | 0.01 to 0.1 |  |
| O=C(c1ccc2[nH]nc(Cl)c2c1)N1CCCC1c1ccc(C(F)(F)F)cc1 (centres unmarked) [compound 219, (3-Chloro-1H-indazol-5-yl)-[2-(4-trifluoromethyl-phenyl)-pyrrolidin-1-yl]-methanone] | 0.01 to 0.1 |  |
| Cc1n[nH]c2ncc(C(=O)N3CCC[C@H]3c3ccc(Cl)c(F)c3)cc12 [compound 227, [(S)-2-(4-Chloro-3-fluoro-phenyl)-pyrrolidin-1-yl]-(3-methyl-1H-pyrazolo[3,4-b]pyridin-5-yl)-methanone] | < 0.01 |  |
| Cc1n[nH]c2ncc(C(=O)N3CCC[C@@H]3c3ccc(Cl)c(F)c3)cc12 [compound 228, [(R)-2-(4-Chloro-3-fluoro-phenyl)-pyrrolidin-1-yl]-(3-methyl-1H-pyrazolo[3,4-b]pyridin-5-yl)-methanone] | 1 to 10 |  |
| Cc1n[nH]c2ncc(C(=O)N3CCC[C@@H]3c3ccc4cn[nH]c4c3)cc12 [compound 229, [(R)-2-(1H-Indazol-6-yl)-pyrrolidin-1-yl]-(3-methyl-1H-pyrazolo[3,4-b]pyridin-5-yl)-methanone] | 1 to 10 |  |
| Cc1n[nH]c2ncc(C(=O)N3CCC[C@H]3c3ccc4cn[nH]c4c3)cc12 [compound 230, [(S)-2-(1H-Indazol-6-yl)-pyrrolidin-1-yl]-(3-methyl-1H-pyrazolo[3,4-b]pyridin-5-yl)-methanone] | 0.01 to 0.1 |  |
| Nc1n[nH]c2ccc(C(=O)N3CCC(O)(c4ccc(Cl)cc4)C3)cc12 (centres unmarked) [compound 238, (3-Amino-1H-indazol-5-yl)-[3-(4-chloro-phenyl)-3-hydroxy-pyrrolidin-1-yl]-methanone] | 0.1 to 1 |  |
| Cc1n[nH]c2ncc(C(=O)N3CC[C@@H]3c3ccc(Cl)cc3)cc12 [compound 240, [(R)-2-(4-Chloro-phenyl)-azetidin-1-yl]-(3-methyl-1H-pyrazolo[3,4-b]pyridin-5-yl)-methanone] | 1 to 10 |  |
| Cc1n[nH]c2ccc(C(=O)N3CCC[C@H]3c3ccc(F)cc3)nc12 [compound 242, (S)-(2-(4-fluorophenyl)pyrrolidin-1-yl)(3-methyl-1H-pyrazolo[4,3-b]pyridin-5-yl)methanone] | < 0.01 |  |
| Cc1n[nH]c2ccc(C(=O)N3CCN(C)CC3c3ccc(Cl)cc3)cc12 (centres unmarked) [compound 244, (2-(4-chlorophenyl)-4-methylpiperazin-1-yl)(3-methyl-1H-indazol-5-yl)methanone] |  | 0.01 to 0.1 |
| Cc1n[nH]c2ncc(C(=O)N3CCC[C@H]3c3ccc4[nH]ncc4c3)cc12 [compound 245, [(S)-2-(1H-Indazol-5-yl)-pyrrolidin-1-yl]-(3-methyl-1H-pyrazolo[3,4-b]pyridin-5-yl)-methanone] | 0.01 to 0.1 |  |

Results, then the compound that gave them:

| IC50 (read-out: IC50) [µM] | IC50 (IC50 [μM]) [µM] | Structure (SMILES) |
| --- | --- | --- |
| < 0.01 |  | Cc1n[nH]c2cc(F)c(C(=O)N3CCC[C@H]3c3ccc(Cl)cc3)cc12 [compound 206, [(S)-2-(4-Chloro-phenyl)-pyrrolidin-1-yl]-(6-fluoro-3-methyl-1H-indazol-5-yl)-methanone] |
| 0.01 to 0.1 |  | Cc1n[nH]c2ccc(C(=O)N3CC[C@@H]3c3ccc(F)cc3)cc12 [compound 207, [(R)-2-(4-Fluoro-phenyl)-azetidin-1-yl]-(3-methyl-1H-indazol-5-yl)-methanone] |
| < 0.01 |  | CSc1n[nH]c2ccc(C(=O)N3CCC[C@H]3c3ccc(Cl)cc3)cc12 [compound 210, [(S)-2-(4-Chloro-phenyl)-pyrrolidin-1-yl]-(3-methylsulfanyl-1H-indazol-5-yl)-methanone] |
| 0.1 to 1 |  | COC(=O)C1CCN(C(=O)c2cnc3[nH]nc(C)c3c2)C(c2ccccc2)C1 (centres unmarked) [compound 211, 1-(3-Methyl-1H-pyrazolo[3,4-b]pyridine-5-carbonyl)-2-phenyl-piperidine-4-carboxylic acid methyl ester] |
| < 0.01 |  | O=C(c1ccc2[nH]nc(F)c2c1)N1CCC[C@H]1c1ccc(Cl)cc1 [compound 216, [(S)-2-(4-Chloro-phenyl)-pyrrolidin-1-yl]-(3-fluoro-1H-indazol-5-yl)-methanone] |
| 0.01 to 0.1 |  | CS(=O)(=O)c1n[nH]c2ccc(C(=O)N3CCC[C@H]3c3ccc(Cl)cc3)cc12 [compound 220, [(S)-2-(4-Chloro-phenyl)-pyrrolidin-1-yl]-(3-methanesulfonyl-1H-indazol-5-yl)-methanone] |
| < 0.01 |  | COc1ccc([C@@H]2CCCN2C(=O)c2cnc3[nH]nc(C)c3c2)cc1 [compound 221, [(S)-2-(4-Methoxy-phenyl)-pyrrolidin-1-yl]-(3-methyl-1H-pyrazolo[3,4-b]pyridin-5-yl)-methanone] |
| 0.1 to 1 |  | COc1cccc([C@@H]2CCCN2C(=O)c2cnc3[nH]nc(C)c3c2)c1 [compound 222, [(S)-2-(3-Methoxy-phenyl)-pyrrolidin-1-yl]-(3-methyl-1H-pyrazolo[3,4-b]pyridin-5-yl)-methanone] |
| 1 to 10 |  | COc1ccc([C@H]2CCCN2C(=O)c2cnc3[nH]nc(C)c3c2)cc1 [compound 223, [(R)-2-(4-Methoxy-phenyl)-pyrrolidin-1-yl]-(3-methyl-1H-pyrazolo[3,4-b]pyridin-5-yl)-methanone] |
| 1 to 10 |  | COc1cccc([C@H]2CCCN2C(=O)c2cnc3[nH]nc(C)c3c2)c1 [compound 224, [(R)-2-(3-Methoxy-phenyl)-pyrrolidin-1-yl]-(3-methyl-1H-pyrazolo[3,4-b]pyridin-5-yl)-methanone] |
| < 0.01 |  | Cc1n[nH]c2ncc(C(=O)N3CCC[C@H]3c3ccc(Cl)cc3F)cc12 [compound 225, [(S)-2-(4-Chloro-2-fluoro-phenyl)-pyrrolidin-1 yl]-(3-methyl-1H-pyrazolo[3,4-b]pyridin-5-yl)-methanone] |
| 1 to 10 |  | Cc1n[nH]c2ncc(C(=O)N3CCC[C@@H]3c3ccc(Cl)cc3F)cc12 [compound 226, [(R)-2-(4-Chloro-2-fluoro-phenyl)-pyrrolidin-1-yl]-(3-methyl-1H-pyrazolo[3,4-b]pyridin-5-yl)-methanone] |
| 1 to 10 |  | Cc1n[nH]c2ncc(C(=O)N3C[C@@H](C)C[C@@H]3c3ccc(C(F)(F)F)cc3)cc12 [compound 231, (3-Methyl-1H-pyrazolo[3,4-b]pyridin-5-yl)-[(2R,4S)-4-methyl-2-(4-trifluoromethyl-phenyl)-pyrrolidin-1-yl]-methanone] |
| 0.01 to 0.1 |  | Cc1n[nH]c2ncc(C(=O)N3C[C@H](C)C[C@H]3c3ccc(C(F)(F)F)cc3)cc12 [compound 232, (3-Methyl-1H-pyrazolo[3,4-b]pyridin-5-yl)-[(2S,4R)-4-methyl-2-(4-trifluoromethyl-phenyl)-pyrrolidin-1-yl]-methanone] |
| 0.1 to 1 |  | Cc1n[nH]c2ncc(C(=O)N3CCC(C(N)=O)CC3c3ccccc3)cc12 (centres unmarked) [compound 235, 1-(3-Methyl-1H-pyrazolo[3,4-b]pyridine-5-carbonyl)-2-phenyl-piperidine-4-carboxylic acid amide] |
|  | < 0.01 | CNc1n[nH]c2ccc(C(=O)N3CCC[C@H]3c3ccc(Cl)cc3)cc12 [compound 236, [(S)-2-(4-Chloro-phenyl)-pyrrolidin-1-yl]-(3-methylamino-1H-indazol-5-yl)-methanone] |
| 0.1 to 1 |  | Cc1n[nH]c2ncc(C(=O)N3CCC(O)(c4ccc(Cl)cc4)C3)cc12 (centres unmarked) [compound 237, [3-(4-Chloro-phenyl)-3-hydroxy-pyrrolidin-1-yl]-(3-methyl-1H-pyrazolo[3,4-b]pyridin-5-yl)-methanone] |
| 0.1 to 1 |  | O=C(c1cnc2[nH]ncc2c1)N1CCC[C@H]1c1ccc(Cl)cc1 [compound 239, [(S)-2-(4-Chloro-phenyl)-pyrrolidin-1-yl]-(1H-pyrazolo[3,4-b]pyridin-5-yl)-methanone] |
| 0.01 to 0.1 |  | Cc1n[nH]c2ncc(C(=O)N3CC[C@H]3c3ccc(Cl)cc3)cc12 [compound 241, [(S)-2-(4-Chloro-phenyl)-azetidin-1-yl]-(3-methyl-1H-pyrazolo[3,4-b]pyridin-5-yl)-methanone] |
| 0.01 to 0.1 |  | COc1n[nH]c2ncc(C(=O)N3CCC[C@H]3c3ccc(Cl)cc3)cc12 [compound 243, (S)-(2-(4-chlorophenyl)pyrrolidin-1-yl)(3-methoxy-1H-pyrazolo[3,4-b]pyridin-5-yl)methanone] |
